Results on 7 molecules are retold here after US20210255193A1, “LYSINE REACTIVE PROBES AND USES THEREOF” (The Scripps Research Institute, priority 2017, published 2021).

What all share (assay): competitive isoTOP-ABPP
What all share (format): binding

In test [1] the target is T1, RINT1 RAD50-interacting protein 1 (Homo sapiens, UniProt Q6NUQ1).
T1 construct: isoTOP-ABPP experiments performed in cell lysates (in vitro); endogenous in cells; host or cells: soluble proteome of human cancer cell lines (MDA-MB-231; Ramos and Jurkat also prepared)
T1 sequence (Q6NUQ1 whole entry): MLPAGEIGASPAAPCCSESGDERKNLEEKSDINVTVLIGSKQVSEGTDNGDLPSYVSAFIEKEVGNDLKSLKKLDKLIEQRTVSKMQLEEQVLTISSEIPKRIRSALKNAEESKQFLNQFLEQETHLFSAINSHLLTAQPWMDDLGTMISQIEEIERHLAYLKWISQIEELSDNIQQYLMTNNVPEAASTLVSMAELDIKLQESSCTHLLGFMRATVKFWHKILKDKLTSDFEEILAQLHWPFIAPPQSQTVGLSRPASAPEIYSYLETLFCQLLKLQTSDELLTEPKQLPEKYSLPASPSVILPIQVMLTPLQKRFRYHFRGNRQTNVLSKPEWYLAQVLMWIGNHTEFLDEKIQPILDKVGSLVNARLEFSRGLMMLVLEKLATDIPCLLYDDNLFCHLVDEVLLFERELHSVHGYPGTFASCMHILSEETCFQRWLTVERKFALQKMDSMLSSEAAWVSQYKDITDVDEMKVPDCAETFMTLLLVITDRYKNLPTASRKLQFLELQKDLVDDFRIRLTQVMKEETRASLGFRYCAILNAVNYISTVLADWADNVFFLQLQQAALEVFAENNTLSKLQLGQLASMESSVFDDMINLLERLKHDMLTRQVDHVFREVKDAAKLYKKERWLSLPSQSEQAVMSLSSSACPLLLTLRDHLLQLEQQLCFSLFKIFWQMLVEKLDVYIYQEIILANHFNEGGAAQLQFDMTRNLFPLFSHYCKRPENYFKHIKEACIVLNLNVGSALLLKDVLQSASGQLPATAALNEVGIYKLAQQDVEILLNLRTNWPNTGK
The note with it: 50 uM, in vitro; for isoTOP-ABPP ratio (R) at liganded lysine Q6NUQ1_K771: sol, 231. In short, it runs like this: (§1)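 Here, isoTOP-ABPP measures loss of STP-alkyne labeling at individual lysines after fragment exposure in lysate. Activated esters are dosed at 50 μM, guanidinylating agents at 100 μM; the probe follows at 0.1 mM for 1 h. R ≥4 marks a liganded lysine.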

For the next test, the target named is T2, CUL2 Cullin-2 (Homo sapiens, UniProt Q13617).
T2 construct: isoTOP-ABPP experiments performed in cell lysates (in vitro); endogenous in cells; host or cells: soluble proteome of human cancer cell lines (MDA-MB-231, Ramos, Jurkat)
T2 sequence (Q13617 whole entry): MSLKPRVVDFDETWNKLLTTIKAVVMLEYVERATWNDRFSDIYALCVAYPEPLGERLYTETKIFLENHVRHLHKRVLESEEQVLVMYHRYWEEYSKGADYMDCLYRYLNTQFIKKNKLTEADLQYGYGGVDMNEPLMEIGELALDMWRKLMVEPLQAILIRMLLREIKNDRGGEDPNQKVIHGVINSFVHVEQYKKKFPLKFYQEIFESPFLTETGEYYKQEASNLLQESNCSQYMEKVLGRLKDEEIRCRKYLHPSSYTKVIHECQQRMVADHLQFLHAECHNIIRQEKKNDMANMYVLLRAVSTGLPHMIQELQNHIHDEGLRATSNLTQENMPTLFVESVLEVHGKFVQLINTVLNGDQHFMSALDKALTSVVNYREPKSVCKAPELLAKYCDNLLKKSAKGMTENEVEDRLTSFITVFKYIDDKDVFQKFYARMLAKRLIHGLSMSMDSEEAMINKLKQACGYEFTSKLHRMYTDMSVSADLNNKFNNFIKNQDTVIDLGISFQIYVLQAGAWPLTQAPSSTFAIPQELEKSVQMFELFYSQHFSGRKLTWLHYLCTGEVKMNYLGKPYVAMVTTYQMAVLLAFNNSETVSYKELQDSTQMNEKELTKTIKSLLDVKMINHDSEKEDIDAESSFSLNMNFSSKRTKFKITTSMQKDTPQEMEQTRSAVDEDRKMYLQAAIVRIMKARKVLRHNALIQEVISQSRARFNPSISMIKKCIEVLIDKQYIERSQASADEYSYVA
The note with it: 50 uM, in vitro; for isoTOP-ABPP ratio (R) at liganded lysine Q13617_K489: sol, 231. The gist of the method:
as §1

Test [2] addresses T3, TRMT10C Mitochondrial ribonuclease P protein 1 (Homo sapiens, UniProt Q7L0Y3).
T3 construct: isoTOP-ABPP experiments performed in cell lysates (in vitro); endogenous in cells; host or cells: soluble proteome of human cancer cell lines (MDA-MB-231; Ramos and Jurkat also prepared)
T3 sequence (Q7L0Y3 40-403): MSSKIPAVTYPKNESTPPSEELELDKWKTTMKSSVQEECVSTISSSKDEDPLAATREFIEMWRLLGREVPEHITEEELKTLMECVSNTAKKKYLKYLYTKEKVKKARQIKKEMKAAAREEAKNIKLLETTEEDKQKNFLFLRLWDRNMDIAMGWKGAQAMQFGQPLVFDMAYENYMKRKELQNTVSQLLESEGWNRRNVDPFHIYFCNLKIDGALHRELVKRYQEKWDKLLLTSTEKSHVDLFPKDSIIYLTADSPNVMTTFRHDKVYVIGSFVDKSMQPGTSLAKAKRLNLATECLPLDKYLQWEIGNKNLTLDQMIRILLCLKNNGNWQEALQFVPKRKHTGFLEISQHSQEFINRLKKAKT
Particulars: 50 uM, in vitro; for isoTOP-ABPP ratio (R) at liganded lysine Q7L0Y3_K325: sol, 231. The gist of the method:
as §1

Test [3] deals with T4, GSTT2B Glutathione S-transferase theta-2B (Homo sapiens, UniProt P0CG30).
T4 construct: isoTOP-ABPP experiments performed in cell lysates (in vitro); endogenous in cells; host or cells: MDA-MB-231 soluble lysate
T4 sequence (P0CG30 1-244): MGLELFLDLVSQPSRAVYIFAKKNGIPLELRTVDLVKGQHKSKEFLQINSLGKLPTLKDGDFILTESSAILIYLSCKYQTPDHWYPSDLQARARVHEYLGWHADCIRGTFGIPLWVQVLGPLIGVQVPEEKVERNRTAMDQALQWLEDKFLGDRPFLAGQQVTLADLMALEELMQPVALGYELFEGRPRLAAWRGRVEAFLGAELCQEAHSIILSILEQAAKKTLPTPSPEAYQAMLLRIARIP
The note with it: 50 uM, in vitro; for isoTOP-ABPP ratio (R) at liganded lysine P0CG30_K53: sol, 231. In short, it runs like this:
as §1

Test [4] deals with T5, GTPBP3 tRNA modification GTPase GTPBP3, mitochondrial (Homo sapiens, UniProt Q969Y2).
T5 construct: isoTOP-ABPP experiments performed in cell lysates (in vitro); endogenous in cells; host or cells: soluble proteome of human cancer cell lines (MDA-MB-231; Ramos and Jurkat also prepared)
T5 sequence (Q969Y2 21-492): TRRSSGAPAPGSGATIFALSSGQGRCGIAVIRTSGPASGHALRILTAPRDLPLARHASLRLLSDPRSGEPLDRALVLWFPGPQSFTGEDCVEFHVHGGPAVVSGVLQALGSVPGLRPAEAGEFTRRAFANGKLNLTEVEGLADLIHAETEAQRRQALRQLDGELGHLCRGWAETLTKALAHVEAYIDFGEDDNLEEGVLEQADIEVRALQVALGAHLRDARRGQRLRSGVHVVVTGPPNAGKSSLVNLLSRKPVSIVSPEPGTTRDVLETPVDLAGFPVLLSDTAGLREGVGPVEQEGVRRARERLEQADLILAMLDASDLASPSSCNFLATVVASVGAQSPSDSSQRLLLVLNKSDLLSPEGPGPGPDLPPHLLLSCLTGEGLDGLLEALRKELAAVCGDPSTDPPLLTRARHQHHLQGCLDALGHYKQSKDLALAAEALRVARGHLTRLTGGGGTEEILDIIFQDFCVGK
Particulars: 50 uM, in vitro; for isoTOP-ABPP ratio (R) at liganded lysine Q969Y2_K492: sol, 231. In short, it runs like this: as §1

As for `Cn1cc(CC(=O)Oc2c(F)c(F)c(F)c(F)c2F)c2ccccc21` [fragment 22, Pentafluorophenyl 2-(1-methyl-1H-indol-3-yl)acetate], the “R value (DMSO/fragment) for probe 1 labeling” value worked out at 1.0 in test [1] (Q6NUQ1_K771, 231 sol); 1.0 on CUL2 Cullin-2 (Q13617_K489, 231 sol); 1.1 in test [2] (Q7L0Y3_K325, 231 sol); 1.0 in test [3] (P0CG30_K53, 231 sol); 1.1 in test [4] (Q969Y2_K492, 231 sol).
`O=C(CCc1cn(-c2ccccc2)nc1-c1ccccc1)Oc1ccc([N+](=O)[O-])cc1[N+](=O)[O-]` [fragment 29, 2,4-Dinitrophenyl 3-(1,3-diphenyl-1H-pyrazol-4-yl)propanoate]: the “isoTOP-ABPP reactivity ratio at lysine Q6NUQ1_K771” value in test [1] (231 sol) is reported as 1.2. Moreover, on CUL2 Cullin-2 (231 sol), the “isoTOP-ABPP reactivity ratio at lysine Q13617_K489” value was 1.2. The “isoTOP-ABPP reactivity ratio at lysine Q7L0Y3_K325” value in test [2] (231 sol) amounted to 0.7. Besides, in test [3] (231 sol), the “isoTOP-ABPP reactivity ratio at lysine P0CG30_K53” value is reported as 0.7. For the same molecule, the “isoTOP-ABPP reactivity ratio at lysine Q969Y2_K492” value in test [4] (231 sol) was determined as 20.0.
For the molecule `O=C(Oc1ccc([N+](=O)[O-])cc1[N+](=O)[O-])C(c1ccccc1)c1ccccc1` [fragment 30, 2,4-Dinitrophenyl 2,2-diphenylacetate], in test [1] (231 sol), the “isoTOP-ABPP reactivity ratio at lysine Q6NUQ1_K771” value came out at 1.7. The “isoTOP-ABPP reactivity ratio at lysine Q13617_K489” value at CUL2 Cullin-2 (231 sol) was determined as 1.1. Also, in test [2] (231 sol), the “isoTOP-ABPP reactivity ratio at lysine Q7L0Y3_K325” value was 1.1. Besides, the “isoTOP-ABPP reactivity ratio at lysine P0CG30_K53” value in test [3] (231 sol) is reported as 0.6. Also, the “isoTOP-ABPP reactivity ratio at lysine Q969Y2_K492” value in test [4] (231 sol) is 1.5.
Take `O=C(Oc1ccc([N+](=O)[O-])cc1[N+](=O)[O-])c1cc(C(F)(F)F)cc(C(F)(F)F)c1` [fragment 31, 2,4-Dinitrophenyl 3,5-bis(trifluoromethyl)benzoate]: the “isoTOP-ABPP reactivity ratio at lysine Q6NUQ1_K771” value in test [1] (231 sol) came out at 20.0. In addition, the “isoTOP-ABPP reactivity ratio at lysine Q13617_K489” value on CUL2 Cullin-2 (231 sol) is recorded as 1.1. In test [2] (231 sol), the “isoTOP-ABPP reactivity ratio at lysine Q7L0Y3_K325” value amounted to 1.1. Further, the “isoTOP-ABPP reactivity ratio at lysine P0CG30_K53” value in test [3] (231 sol) was found to be 0.8. Also, the “isoTOP-ABPP reactivity ratio at lysine Q969Y2_K492” value in test [4] (231 sol) was 1.4.
Regarding `Cn1cc(CC(=O)Oc2ccc([N+](=O)[O-])cc2[N+](=O)[O-])c2ccccc21` [fragment 32, 2,4-Dinitrophenyl 2-(1-methyl-1H-indol-3-yl)acetate], the “isoTOP-ABPP reactivity ratio at lysine Q6NUQ1_K771” value in test [1] (231 sol) is 1.2. Moreover, the “isoTOP-ABPP reactivity ratio at lysine Q13617_K489” value on CUL2 Cullin-2 (231 sol) is on record as 1.1. Besides, in test [2] (231 sol), the “isoTOP-ABPP reactivity ratio at lysine Q7L0Y3_K325” value came to 1.0. Moreover, the “isoTOP-ABPP reactivity ratio at lysine P0CG30_K53” value in test [3] (231 sol) was 0.8. Also, the “isoTOP-ABPP reactivity ratio at lysine Q969Y2_K492” value in test [4] (231 sol) is listed as 1.8.
Consider `O=C(Oc1ccc([N+](=O)[O-])cc1[N+](=O)[O-])C1CCN(C(=O)OCc2ccccc2)CC1` [fragment 34, 1-Benzyl 4-(2,4-dinitrophenyl) piperidine-1,4-dicarboxylate], for which, in test [1], the “isoTOP-ABPP ratio (R) at liganded lysine Q6NUQ1_K771” value is recorded as 1.3. Moreover, on CUL2 Cullin-2, the “isoTOP-ABPP ratio (R) at liganded lysine Q13617_K489” value is listed as 1.1. Moreover, the “isoTOP-ABPP ratio (R) at liganded lysine Q7L0Y3_K325” value in test [2] turned out to be 1.0. For the same molecule, the “isoTOP-ABPP ratio (R) at liganded lysine P0CG30_K53” value in test [3] is 0.5. Further, the “isoTOP-ABPP ratio (R) at liganded lysine Q969Y2_K492” value in test [4] was found to be 1.6.
On the same counts, the results for `O=C(Oc1ccc([N+](=O)[O-])cc1[N+](=O)[O-])c1ccc(-c2ccccc2)cc1` [fragment 37, 2,4-Dinitrophenyl [1,1′-biphenyl]-4-carboxylate] are 1.3, 1.0, 1.0, 0.7 and 1.2.
